Data from patent US4172148A, “Ruminant feeds containing trichloroethyl esters of essential amino acids” (E. R. Squibb & Sons, Inc., priority 1978, dated 1979).

Legend:
[1] = system: volatile fatty acid concentrations in the in vitro rumen fermentation; assay: in vitro rumen fermentation, volatile fatty acids, alfalfa hay:concentrate 3:1 (Examples 3 and 12); design: species or system sheep; settings: for Acetic acid / Acetic:propionic / Butyric acid / Propionic acid / Total acids: 6 h, 39° C.
Description: A one gram sample of substrate ground through a 1 mm screen is weighed into 100 ml. lipless beakers equipped with gas-release valves. The substrate consists of alfalfa hay containing approximately 16% protein and a concentrate containing ground corn 60.7%, alfalfa meal 17.5%, molasses 10.0%, soybean meal 5.3%, wheat bran 5.0%, trace mineralized salt 1.0%, limestone 0.5% and Vitamin D 300,000 I.U./ton, mixed in the proportion 3:1. The experimental composition is added to the substrate. 25 ml. of filtered rumen fluid obtained from fasted sheep maintained on feed the same as the above mentioned substrate and 25 ml. of McDougal's buffer solution serve as the inoculum. The buffer solution is as follows:
The fermentation mixture is flushed with carbon dioxide and the vessel is capped with a gas release valve. The fermentation vessel (beaker) is placed in a water bath and incubated at 39° C.±1° for six hours. The sample is mixed every hour by shaking the beaker.
At the end of the 6-hour fermentation period the sample is strained through 4 layers of cheesecloth into a sample bottle containing 1 ml. saturated solution of mercuric chloride. The sample is frozen immediately until analyzed for the volatile fatty acids (VFA) (mg/100 ml.). Prior to analysis, each sample is acidified with 30% phosphoric acid and then analyzed by gas chromatography using a column containing 5% nonylphenoxypolyoxyethylene ethanol plus 0.5% phosphoric acid on 100-120 mesh Gas Chrom S. The acids determined are acetic, propionic, butyric, isobutyric, valeric and isovaleric acids. Total VFA is considered as the addition of these acids. The ratio of acetic: propionic (A:P) is obtained by dividing the concentration of acetic acid by that of propionic acid.
The effect of various compounds alone on the volatile fatty acid concentrations was determined by the procedure of Example 3. […] A direct comparison between phenylalanine and phenylalanine trichloroethyl ester is provided.

[2] = system: growing lambs; assay: body weight gain and feed efficiency of growing lambs (Examples 9-11); assay type: in vivo, lambs (sheep)
Description: A test was conducted to determine if feeding L-phenylalanine, 2,2,2-trichloroethyl ester to growing lambs was effective in improving growth and feed efficiency. Wether and ewe lambs were divided into groups of 30 lambs each. They were acclimated to their pens for 2 weeks prior to treatment.
The feed supplied to the animals had the following composition
The test compound in an amount of 0.0055% (50 g/ton) was admixed with the above feed composition.
Body weights and feed consumption were recorded at 0, 2, 4 and 6 weeks. Feed efficiencies were calculated.
The test procedure of Example 9 was followed to test the growth effect and feed efficiency of glycine 2,2,2-trichloroethyl ester on growing lambs. The feed composition of Example 9 was used but contained glycine 2,2,2-trichloroethyl ester in an amount of 0.0044% (40 g/ton). There were 44 lambs in the control group receiving the feed composition without additive and 42 lambs receiving the feed composition containing the amino acid ester.
The test procedure of Example 9 was followed to test the growth effect and feed efficiency of L-phenylalanine 2,2,2-trichloroethyl ester on growing lambs. The feed composition of Example 9 was used but contained 0.0088% (80 g/ton) of this amino acid ester. There were 59 lambs in the control group fed the feed without additive and 58 lambs in the group fed the feed composition containing the test compound.

[3] = system: volatile fatty acid concentrations in fistulated sheep; assay: volatile fatty acid concentrations in vivo in fistulated sheep, 227 g concentrate and 680 g alfalfa hay (Examples 5 and 8); settings: for Acetic:propionic ratio / Other acids (%) / Butyric acid (%) / Propionic acid (%) / Acetic acid (%) / Total acids: day 7
From the text: Mature sheep (wethers) fitted with permanent rumen fistulae were used to determine the effect of L-phenylalanine, 2,2,2-trichloroethyl ester on volatile fatty acid concentrations in vivo (3 wethers per treatment). The animals were individually penned and fed 227 g. of concentrate (described in Example 3) and 680 g. of alfalfa hay once daily. The test compound was admixed with the concentrate. The sheep were medicated for 7 days. Samples for analysis were obtained before (Day 0) and after treatment (Day 7) approximately 6 hours after feeding.

Br.N[C@@H](Cc1ccccc1)C(=O)OCC(Cl)(Cl)Cl [L-Phenylalanine 2,2,2-trichloroethyl ester, hydrobromide]
Acetic acid ([1]; 0.02 mg/ml): 95 % of control | Acetic:propionic ([1]; 0.02 mg/ml): 83 % of control | Butyric acid ([1]; 0.02 mg/ml): 106 % of control | Propionic acid ([1]; 0.02 mg/ml): 115 % of control | Total acids ([1]; 0.02 mg/ml): 101 % of control | Acetic acid ([1]; 0.04 mg/ml): 85 % of control | Acetic:propionic ([1]; 0.04 mg/ml): 77 % of control | Butyric acid ([1]; 0.04 mg/ml): 114 % of control | Propionic acid ([1]; 0.04 mg/ml): 111 % of control | Total acids ([1]; 0.04 mg/ml): 95 % of control | Acetic acid ([1]; 0.08 mg/ml): 95 % of control | Acetic:propionic ([1]; 0.08 mg/ml): 84 % of control | Butyric acid ([1]; 0.08 mg/ml): 108 % of control | Propionic acid ([1]; 0.08 mg/ml): 112 % of control | Total acids ([1]; 0.08 mg/ml): 100 % of control | Acetic acid ([1]; 0.1 mg/ml): 92 % of control | Acetic:propionic ([1]; 0.1 mg/ml): 74 % of control | Butyric acid ([1]; 0.1 mg/ml): 116 % of control | Propionic acid ([1]; 0.1 mg/ml): 124 % of control | Total acids ([1]; 0.1 mg/ml): 102 % of control | Acetic acid ([1]; 0.2 mg/ml): 90 % of control | Acetic:propionic ([1]; 0.2 mg/ml): 75 % of control | Butyric acid ([1]; 0.2 mg/ml): 114 % of control | Propionic acid ([1]; 0.2 mg/ml): 120 % of control | Total acids ([1]; 0.2 mg/ml): 100 % of control | Acetic acid ([1]; 0.4 mg/ml): 83 % of control | Acetic:propionic ([1]; 0.4 mg/ml): 73 % of control | Butyric acid ([1]; 0.4 mg/ml): 115 % of control | Propionic acid ([1]; 0.4 mg/ml): 114 % of control | Total acids ([1]; 0.4 mg/ml): 94 % of control | effect on acetic to propionic acid ratio (in words) ([1]; at all levels (0.02-0.4 mg/ml)): decreasing the acetic to propionic acid ratio | effect on propionic acid concentrations (in words) ([1]; at all levels (0.02-0.4 mg/ml)): effective in increasing the propionic acid concentrations | Body weight gain ([2]; 0.0055% (50 g/ton) in feed, 0-2 wks., control 2.47): 2.97 kg | Body weight gain ([2]; 0.0055% (50 g/ton) in feed, 0-4 wks., control 5.80): 5.82 kg | Feed efficiency ([2]; 0.0055% (50 g/ton) in feed, 0-6 wks., control 0.190): 0.196 gain/unit of feed | Body weight gain ([2]; 0.0055% (50 g/ton) in feed, 0-6 wks., control 8.51): 9.08 kg | effect on feed efficiency (in words) ([2]; 0.0055% (50 g/ton) in the feed): improving feed efficiency | effect on gains (in words) ([2]; 0.0055% (50 g/ton) in the feed): effective in increasing gains | Weight gain ([2]; 0.0088% (80 g/ton) in feed, 0-2 wks, control 1.50): 1.49 kg | Weight gain ([2]; 0.0088% (80 g/ton) in feed, 0-4 wks, control 4.44): 4.63 kg | Feed efficiency ([2]; 0.0088% (80 g/ton) in feed, 0-6 wks, control 0.160): 0.168 gain/feed | Weight gain ([2]; 0.0088% (80 g/ton) in feed, 0-6 wks, control 7.56): 7.81 kg | Acetic:propionic ratio ([3]; 200 mg/head/day, pretreatment 3.52, control day 7 3.56): 3.11 | Other acids (%) ([3]; 200 mg/head/day, pretreatment 5.4, control day 7 5.5): 5.8% | Butyric acid (%) ([3]; 200 mg/head/day, pretreatment 12.8, control day 7 15.5): 15.1% | Propionic acid (%) ([3]; 200 mg/head/day, pretreatment 18.2, control day 7 17.4): 19.3% | Acetic acid (%) ([3]; 200 mg/head/day, pretreatment 63.7, control day 7 61.6): 59.7% | Total acids ([3]; 200 mg/head/day, pretreatment 657, control day 7 698): 667 mg/100 ml. | Acetic:propionic ratio ([3]; 500 mg/head/day, pretreatment 3.39, control day 7 3.56): 2.43 | Other acids (%) ([3]; 500 mg/head/day, pretreatment 5.7, control day 7 5.5): 8.1% | Butyric acid (%) ([3]; 500 mg/head/day, pretreatment 12.7, control day 7 15.5): 18.0% | Propionic acid (%) ([3]; 500 mg/head/day, pretreatment 18.6, control day 7 17.4): 21.5% | Acetic acid (%) ([3]; 500 mg/head/day, pretreatment 63.1, control day 7 61.6): 52.5% | Total acids ([3]; 500 mg/head/day, pretreatment 614, control day 7 698): 624 mg/100 ml. | effect on acetic:propionic ratio (in words) ([3]; fistulated sheep, 7 days): decreased the acetic:propionic ratio | effect on proportion of propionic acid (in words) ([3]; fistulated sheep, 7 days): increased the proportion of propionic acid
